Drawing on ChEMBL document CHEMBL3393053, “Synthesis and biological evaluation of isoindoloisoquinolinone, pyroloisoquinolinone and benzoquinazolinone derivatives as poly(ADP-ribose) polymerase-1 inhibitors” (Bioorg Med Chem, 2015), this text covers Activity and viability for four molecules.

Data set [1] can be described thus: Antioxidant activity against H2O2-induced oxidative stress in chicken RBC assessed as catalase activity by measuring H2O2 utilization per mg protein pre-incubated at 50 uM followed by H2O2 addition by UV spectroscopy (reference value: 15.97 +/- 2.12 nmol of H2O2 utilized/min/mg of protein). In kind it is functional, Gallus gallus, Erythrocyte.
Data set [2] in a line: Antioxidant activity against H2O2-induced oxidative stress in chicken RBC assessed as catalase activity by measuring H2O2 utilization per mg protein pre-incubated at 25 uM followed by H2O2 addition by UV spectroscopy (reference value: 15.97 +/- 2.12 nmol of H2O2 utilized/min/mg of protein). The data set is classed as functional, Gallus gallus, Erythrocyte.
Data set [3] in a line: Antioxidant activity against H2O2-induced oxidative stress in chicken RBC assessed as lipid peroxidation level by measuring malondialdehyde formation per mg protein pre-incubated at 25 uM followed by H2O2 addition by UV spectroscopy (reference value: 84.32 +/- 12.04 nmol malondialdehyde formed/mg protein). In kind it is functional, Gallus gallus, Erythrocyte.
Data set [4] is described as follows: Antioxidant activity against H2O2-induced oxidative stress in chicken RBC assessed as catalase activity by measuring H2O2 utilization per mg protein pre-incubated at 100 uM followed by H2O2 addition by UV spectroscopy (reference value: 15.97 +/- 2.12 nmol of H2O2 utilized/min/mg of protein). In kind it is functional, Gallus gallus, Erythrocyte.
The nature of data set [5]: Antioxidant activity against H2O2-induced oxidative stress in chicken RBC assessed as lipid peroxidation level by measuring malondialdehyde formation per mg protein pre-incubated at 75 uM followed by H2O2 addition by UV spectroscopy (reference value: 84.32 +/- 12.04 nmol malondialdehyde formed/mg protein). In kind it is functional, Gallus gallus, Erythrocyte.
Data set [6] can be described thus: Antioxidant activity against H2O2-induced oxidative stress in chicken RBC assessed as superoxide dismutase activity by measuring pyrogallol oxidization per mg protein pre-incubated at 25 uM followed by H2O2 addition by UV spectroscopy (reference value: 11.32 +/- 1.96 pyrogallol oxidized/min/mg of protein). The data set is classed as functional, Gallus gallus, Erythrocyte.

Data set [7] can be described thus: Cytoprotective activity against H2O2-induced cytotoxicity in chicken RBC assessed as cell viability pre-incubated at 100 uM followed by H2O2 addition by acridine orange and ethidium bromide staining method (reference value: 41 +/- 2.08%). The data set is classed as functional. The conditions noted are these: Gallus gallus, Erythrocyte; read-out: Activity.
A short description of data set [8]: Toxicity against chicken RBC assessed as effect on cell viability at 25 to 100 uM by acridine orange and ethidium bromide staining method. The data set is classed as cell-based, Gallus gallus. The conditions noted are these: erythrocyte.
A short description of data set [9]: Antioxidant activity against H2O2-induced oxidative stress in chicken RBC assessed as catalase activity by measuring H2O2 utilization per mg protein pre-incubated at 75 uM followed by H2O2 addition by UV spectroscopy (reference value: 15.97 +/- 2.12 nmol of H2O2 utilized/min/mg of protein). In kind it is functional, Gallus gallus, Erythrocyte.
The subject of data set [10] is Erythrocyte. In words: Cytoprotective activity against H2O2-induced genomic DNA damage in chicken RBC assessed as DNA level in comet tail region pre-incubated at 100 uM followed by H2O2 addition by single cell alkaline gel electrophoresis and fluorescent microscopy based comet assay (reference value: 45.78 +/- 3.24%). The data set is classed as functional, Gallus gallus.

Data set [11] is described as follows: Antioxidant activity against H2O2-induced oxidative stress in chicken RBC assessed as lipid peroxidation level by measuring malondialdehyde formation per mg protein pre-incubated at 100 uM followed by H2O2 addition by UV spectroscopy (reference value: 84.32 +/- 12.04 nmol malondialdehyde formed/mg protein). The data set is classed as functional, Gallus gallus, Erythrocyte.

The nature of data set [12]: Antioxidant activity against H2O2-induced oxidative stress in chicken RBC assessed as superoxide dismutase activity by measuring pyrogallol oxidization per mg protein pre-incubated at 100 uM followed by H2O2 addition by UV spectroscopy (reference value: 11.32 +/- 1.96 pyrogallol oxidized/min/mg of protein). The data set is classed as functional, Gallus gallus, Erythrocyte.

Data set [13] in a line: Antioxidant activity against H2O2-induced oxidative stress in chicken RBC assessed as lipid peroxidation level by measuring malondialdehyde formation per mg protein pre-incubated at 50 uM followed by H2O2 addition by UV spectroscopy (reference value: 84.32 +/- 12.04 nmol malondialdehyde formed/mg protein). The data set is classed as functional, Gallus gallus, Erythrocyte.

The subject of data set [14] is Erythrocyte. Kind of data set: Cytoprotective activity against H2O2-induced genomic DNA damage in chicken RBC assessed as DNA level in comet head region pre-incubated at 100 uM followed by H2O2 addition by single cell alkaline gel electrophoresis and fluorescent microscopy based comet assay (reference value: 52.23 +/- 3.98%). The data set is classed as functional, Gallus gallus.

The nature of data set [15]: Antioxidant activity against H2O2-induced oxidative stress in chicken RBC assessed as superoxide dismutase activity by measuring pyrogallol oxidization per mg protein pre-incubated at 75 uM followed by H2O2 addition by UV spectroscopy (reference value: 11.32 +/- 1.96 pyrogallol oxidized/min/mg of protein). The data set is classed as functional, Gallus gallus, Erythrocyte.

Data set [16] can be described thus: Antioxidant activity against H2O2-induced oxidative stress in chicken RBC assessed as superoxide dismutase activity by measuring pyrogallol oxidization per mg protein pre-incubated at 50 uM followed by H2O2 addition by UV spectroscopy (reference value: 11.32 +/- 1.96 pyrogallol oxidized/min/mg of protein). In kind it is functional, Gallus gallus, Erythrocyte.

Take `COc1ccc2c(c1)CCN1C(=O)c3ccccc3C21O` (centres undefined): the Activity in data set [1] was found to be 16.25 nmol/min/mg; in [2] it was 15.31 nmol/min/mg; in [3], 62.98 nmol/mg protein; in data set [4] it was 16.37 nmol/min/mg protein; in data set [5], 48.12 nmol/mg protein; in data set [6], 12.65 µmol/min. Moreover, the Activity entry is “Non-toxic” in data set [8]; 16.46 nmol/min/mg in data set [9]; 41.96% in the data set on Erythrocyte [10]; 42.14 nmol/mg protein in data set [11]; 11.37 µmol/min in [12]; 56.32 nmol/mg protein in [13]. The Activity is 57.29% in the data set on Erythrocyte [14], 11.48 µmol/min in data set [15] and 11.87 µmol/min in [16]. In [7], the viability at 100 µM stood at 53.6%.
On to `COc1cc2c(cc1O)C1(O)c3ccccc3C(=O)N1CC2` (centres undefined), for which the Activity in [1] was found to be 51.49 nmol/min/mg; in data set [2], 29.52 nmol/min/mg; in data set [3], 52.71 nmol/mg protein; in data set [4], 70.66 nmol/min/mg protein; in data set [5], 26.35 nmol/mg protein; in data set [6], 18.616 µmol/min. Further, the Activity entry was “Non-toxic” in [8]; 62.57 nmol/min/mg in data set [9]; 7.34% with Erythrocyte [10]; 15.02 nmol/mg protein in data set [11]; 30.94 µmol/min in [12]; 47.15 nmol/mg protein in data set [13]. For the same molecule, the values for the Activity (in the data set on Erythrocyte [14]; in data set [15]; in data set [16]) were 92.3%, 28.863 µmol/min and 21.63 µmol/min, respectively. The viability at 100 µM in [7] worked out at 93.6%.
`COc1ccc2c(c1OC)CCN1C(=O)CCCC21` (centres undefined): the Activity was 25.95 nmol/min/mg in [1]; 17.36 nmol/min/mg in data set [2]; 61.45 nmol/mg protein in [3]; 31.43 nmol/min/mg protein in data set [4]; 48.23 nmol/mg protein in data set [5]; 11.76 µmol/min in data set [6]. Further, the Activity result was “Non-toxic” in [8]; 28.47 nmol/min/mg in [9]; 9.75% in the data set with Erythrocyte [10]; 49.54 nmol/mg protein in [11]; 12.98 µmol/min in data set [12]; 54.23 nmol/mg protein in data set [13]. Also, the Activity with Erythrocyte [14] amounted to 73.84%; in data set [15], 11.95 µmol/min; in data set [16], 11.48 µmol/min. Also, the viability at 100 µM in data set [7] came out at 86.6%.
For `COc1ccc2c(c1OC)CCN1C(=O)c3ccccc3C21O` (centres undefined), the Activity in data set [1] was found to be 16.25 nmol/min/mg; in [2], 15.31 nmol/min/mg; in data set [3], 53.65 nmol/mg protein; in data set [4] it was 16.37 nmol/min/mg protein; in [5] it was 41.21 nmol/mg protein; in [6], 13.19 µmol/min. Also, the Activity result was “Non-toxic” in [8]; 16.46 nmol/min/mg in data set [9]; 42.97% in the data set on Erythrocyte [10]; 48.32 nmol/mg protein in [11]; 18.13 µmol/min in data set [12]; 46.37 nmol/mg protein in [13]. The Activity turned out to be 56.64% in the data set on Erythrocyte [14], 15.54 µmol/min in data set [15] and 15.96 µmol/min in [16]. Also, the viability at 100 µM in data set [7] was found to be 65.6%.
